Results from US20250213560A1, “NITROGEN-CONTAINING HETEROCYCLIC COMPOUNDS HAVING PHENYL GROUP AND USES THEREOF” (BNH RESEARCH CO., LTD., priority 2022, published 2025).

Columns and labels:
293T cells = experiment: Cytotoxicity test (CCK-8 cell viability) in 293T cells; assay type: cell-based, human
How it was run: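 293T cells plated 24 h, then exposed to serial compound concentrations for 24 h (six replicates). Viability by CCK-8 ([…], OD 450 nm), blank-subtracted and expressed as percent of vehicle control; IC50 calculated from these values.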

[1] = tested on: mouse barrel cortex (layer 4); experiment: Ex vivo synaptic plasticity (TC EPSC potency, GABA/AMPA ratio) in barrel cortex after in vivo administration; conditions: C57BL/6J mice
Text: Eight weeks old male C57BL/6J mice were anesthetized with isoflurane during surgery. The mice were then be placed in a stereotaxic frame (RWD Life Science, China). The parietal and the frontal bones were exposed by a sagittal incision of the scalp at the midline from the level of the eyes to the occipital protuberance. A small burr hole was drilled after exposing the skull. The injection cannula was placed at the following coordinates: (Mouse: Bregma-3.30, lateral-1.50, and ventral 0.7 mm). Sterile saline solution (+/−a compound of the present disclosure) was perfused at a constant flow rate of […] through the injection cannula using a mini-Os pump (DURECT Corporation ALZET Osmotic Pumps, CA). Implantation was done in layer 4 of the barrel cortex ipsilateral. To estimate extent of the diffusion of the injected compound in layer 4 barrel cortex during pump injection, methylene blue was first injected to stain the diffusion area. On average methylene blue diffused to 2000.0 μm away from the injection site (the total area of the barrel cortex region is about 1500 μm). Based on this analysis, the present inventors recorded from barrel cortex area.
The compound was diluted to 25 mg/kg using DMSO: PEG400: Saline (5:55:40). The compound was administered intraperitoneal at 10:00 a.m. daily (i.p. volume was 200 ul) for about 11 to 12 days. Control group was also administered by i.p. injection in the same manner using the vehicle (DMSO: PEG400: Saline (5:55:40)). 5 mice were used for the compound administration group and the control group, respectively.
For TC or hippocampus slice preparation, 9 to 10 weeks-old male C57BL/6J mice were anesthetized with isoflurane. Then, the brain was rapidly cooled via transcardial perfusion with ice-cold sucrose-artificial cerebrospinal fluid (aCSF). The brain was removed and placed in ice-cold sucrose aCSF. Paracoronal slices were prepared at an angle of 50° relative to the midline on a ramp at an angle of 10°. Then, slices were incubated in aCSF at 35° C. for 30 minutes to recover. […]
Whole cell recordings were made using a multiclamp 700A (Molecular devices, Sunnyvale, CA)digitized at 10 kHz and filtered at 2 kHz. Input resistance and series resistance were monitored continuously during recordings, as previously described (see Isaac, Crair, Nicoll, & Malenka, 1997, Silent synapses during development of thalamocortical inputs, DOI: 10.1016/s0896-6273 (00) 80267-6).
For the minimal stimulation protocol (Potency), VB thalamic stimulation intensity was adjusted to find the lowest intensity that elicited a mixture of synaptic responses and failures. Failure rate was calculated as the number of failures/total number of trials. […]

HDAC4 = target: T1, HDAC4 (Mus musculus, UniProt Q6NZM9); experiment: HDAC4 protein level in barrel cortex by Western blot; assay type: in vivo; conditions: mice barrel cortex
T1 construct: Cortical tissue from mice was prepared according to protocol above then was homogenized and lysed for protein extraction; from tissue; host or cells: barrel cortex of C57BL/6J mice

[2] = Os pump, 3 μM continuously for 2 weeks, barrel cortex layer 4
[3] = intraperitoneal 25 mg/kg once a day for about 11 or 12 days

T1 sequence (Q6NZM9 whole entry): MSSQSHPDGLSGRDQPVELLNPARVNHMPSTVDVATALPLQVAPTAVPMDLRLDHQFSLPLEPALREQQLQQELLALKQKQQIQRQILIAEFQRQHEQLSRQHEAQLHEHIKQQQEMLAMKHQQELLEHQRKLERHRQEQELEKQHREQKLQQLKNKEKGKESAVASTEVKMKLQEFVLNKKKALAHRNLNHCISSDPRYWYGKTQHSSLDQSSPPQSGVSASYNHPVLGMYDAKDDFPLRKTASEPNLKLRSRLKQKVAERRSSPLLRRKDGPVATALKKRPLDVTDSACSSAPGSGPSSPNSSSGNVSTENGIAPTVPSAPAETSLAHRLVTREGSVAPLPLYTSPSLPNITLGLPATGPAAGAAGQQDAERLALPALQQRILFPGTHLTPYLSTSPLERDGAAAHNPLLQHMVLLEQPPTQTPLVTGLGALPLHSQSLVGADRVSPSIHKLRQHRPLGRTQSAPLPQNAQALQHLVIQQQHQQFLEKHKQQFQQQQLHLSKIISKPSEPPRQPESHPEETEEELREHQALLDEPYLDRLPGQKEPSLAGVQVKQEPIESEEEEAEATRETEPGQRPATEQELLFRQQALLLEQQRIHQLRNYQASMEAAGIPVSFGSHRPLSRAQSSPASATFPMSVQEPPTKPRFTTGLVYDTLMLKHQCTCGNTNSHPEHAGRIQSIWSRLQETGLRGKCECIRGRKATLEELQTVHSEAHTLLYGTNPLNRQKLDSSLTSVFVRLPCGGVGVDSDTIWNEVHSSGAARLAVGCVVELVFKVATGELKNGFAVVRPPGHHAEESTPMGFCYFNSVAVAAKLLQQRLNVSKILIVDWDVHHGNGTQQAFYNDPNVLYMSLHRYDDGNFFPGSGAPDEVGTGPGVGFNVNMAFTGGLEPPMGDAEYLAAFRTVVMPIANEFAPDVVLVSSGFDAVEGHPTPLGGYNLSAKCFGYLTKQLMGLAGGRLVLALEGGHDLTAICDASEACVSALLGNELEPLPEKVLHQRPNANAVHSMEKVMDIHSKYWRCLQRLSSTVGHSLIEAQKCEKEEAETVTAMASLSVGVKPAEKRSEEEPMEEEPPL

SMILES: C[C@H]1CC[C@@H](C(=O)O)CN1C(=O)Cc1ccc(-c2cncnc2)cc1 [BnH12003, (3R,6S)-6-methyl-1-(2-(4-(pyrimidin-5-yl)phenyl)acetyl) piperidine-3-carboxylic acid]
- Cell viability test results (CCK) 10 uM (293T cells; 293T cell line, 10 uM): 99%<
- Cell viability test results (CCK) 100 uM (293T cells; 293T cell line, 100 uM): 90%<
- cell viability (293T cells; 293T, 0, 0.1, 1, 10, 100 μM, 24 hours, CCK-8): no significant change in cell viability
- GABA/AMPA ratio (balance of excitation/inhibition) [1, 2]: balance of excitation/inhibition was maintained
- excitatory TC synaptic potency (TC potency) [1, 2]: significantly increased
- GABA/AMPA ratio (balance of excitation/inhibition) [1, 3]: maintaining the balance of excitation/inhibition
- TC synaptic potency in the sensory cortex [1, 3]: increase TC synaptic potency
- HDAC4 protein expression (HDAC4; intraperitoneal administration): significantly suppressed
- HDAC4 protein expression (HDAC4; oral administration): significantly suppressed
- duration of the inhibitory effect on HDAC4 protein expression (HDAC4; oral and intraperitoneal administration): ≥ 10 days
